Data published in paper PMC10746543, “Design principles for cyclin K molecular glue degraders” (Nature Chemical Biology, 2023).
Values joined by “and” are separate entries in the source; they are usually repeats but may differ in a detail not shown here. Identical values can stand only once. Like-named read-outs stand apart in the source and are kept apart here.

How the values were obtained:
[1] = target: T1, CDK12–cyclin K and DDB1 (Homo sapiens, UniProt Q16531+Q9NYV4, K965R); assay: TR-FRET ternary complex formation assay (compound titration); type: binding; conditions: for TR-FRET signal at compound concentration: replicate titrations
T1 construct: His6–CDK12 (a.a. 713–1,052); full-length or beta-propeller B domain deletion (ΔBPB: a.a. 396–705 deleted) constructs of His6–DDB1ΔBPB, StrepII–Avi–DDB1, or His6–Spy–DDB1; made in house; host or cells: Trichoplusia ni High Five insect cells (baculovirus)
Summary of the method: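 TR-FRET ratio 520/490 nm; 70 μs delay before read to suppress background.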

[2] = tested on: cyclin K–eGFP degradation reporter; assay: Cyclin K reporter stability analysis (dual-color cyclin K–eGFP reporter); type: cell-based, human; conditions: source data sheet correlations; read-out: DC50
Summary of the method: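 Cells (HEK293T–Cas9, reporter-expressing) at 1 × 10^6 ml^−1; 5 h compound or DMSO; flow cytometry; gMFI eGFP ÷ mCherry on round mCherry-positive events; normalized to 3 DMSO controls.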

[3] = tested on: HEK293T cells; assay: Drug sensitivity assay (CellTiter-Glo viability) with or without MLN4924 pretreatment; type: cell-based, human; conditions: Supplementary Table 2
Summary of the method: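 Luminescent ATP read-out (CellTiter-Glo) after 3 days of drug exposure, normalised to DMSO controls. Cells were HEK293T–Cas9, pretreated with 100 nM MLN4924 or DMSO for 2 h before drug dispensing.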

[4] = tested on: cyclin K; assay: Label-free quantitative mass spectrometry in MDA-MB-231 cells, cyclin K; type: cell-based, human
Procedure: (§1) MDA-MB-231 cells were treated with DMSO or a cyclin K degrader compound at 1 µM for 5 h. Cells were collected by centrifugation and washed with phosphate-buffered saline before snap freezing in liquid nitrogen. Cells were lysed by addition of lysis buffer (8 M urea, 50 mM NaCl, 50 mM 4-(2-hydroxyethyl)-1-piperazineethanesulfonic acid (EPPS) pH 8.5, and protease and phosphatase inhibitors) and homogenization by bead beating (BioSpec) for three repeats of 30 s at 2,400 rpm. Bradford assay was used to determine the final protein concentration in the clarified cell lysate. Then 50 µg of protein for each sample was reduced, alkylated and precipitated using methanol/chloroform as previously described, and the resulting washed precipitated protein was allowed to air dry. Precipitated protein was resuspended in 4 M urea, 50 mM HEPES pH 7.4, followed by dilution to 1 M urea with the addition of 200 mM EPPS, pH 8. Proteins were first digested with LysC (1:50; enzyme:protein) for 12 h at room temperature. The LysC digestion was diluted to 0.5 M urea with 200 mM EPPS pH 8 followed by digestion with trypsin (1:50; enzyme:protein) for 6 h at 37 °C. Sample digests were acidified with formic acid to a pH of 2–3 before desalting using C18 solid phase extraction plates (SOLA, Thermo Fisher Scientific). Desalted peptides were dried in a vacuum-centrifuged and reconstituted in 0.1% formic acid for liquid chromatography–mass spectrometry analysis.
(§2) Data were collected using a TimsTOF Pro2 (Bruker Daltonics) coupled to a nanoElute LC pump (Bruker Daltonics) via a CaptiveSpray nano-electrospray source. Peptides were separated on a reversed-phase C18 column (25 cm × 75 µm inner diameter, […], IonOpticks) containing an integrated captive spray emitter. Peptides were separated using a 50 min gradient of 2–30% buffer B (acetonitrile in 0.1% formic acid) with a flow rate of 250 nl min^−1 and column temperature maintained at 50 °C.
(§3) Data-dependent acquisition (DDA) was performed in Parallel Accumulation-Serial Fragmentation (PASEF) mode to determine effective ion mobility windows for downstream diaPASEF data collection. The ddaPASEF parameters included: 100% duty cycle using accumulation and ramp times of 50 ms each, one Trapped Ion Mobility Spectrometry(TIMS)-MS scan and ten PASEF ramps per acquisition cycle. The TIMS-MS survey scan was acquired between 100 m/z and 1,700 m/z and 1/K0 of 0.7–1.3 V s cm^−2. Precursors with one to five charges were selected, and those that reached an intensity threshold of 20,000 arbitrary units were actively excluded for 0.4 min. The quadrupole isolation width was set to 2 m/z for m/z < 700 and 3 m/z for m/z > 800, with the m/z between 700 m/z and 800 m/z being interpolated linearly. […] To perform diaPASEF, the precursor distribution in the DDA m/z-ion mobility plane was used to design an acquisition scheme for data-independent acquisition (DIA) data collection that included two windows in each 50 ms diaPASEF scan. Data were acquired using 16 of these 25 Da precursor double window scans (creating 32 windows) that covered the diagonal scan line for doubly and triply charged precursors, with singly charged precursors able to be excluded by their position in the m/z-ion mobility plane. These precursor isolation windows were defined between 400 m/z and 1,200 m/z and 1/K0 of 0.7–1.3 V s cm^−2.
(§4) DirectDIA mode includes first extracting the DIA data into a collection of MS2 spectra which are searched using Spectronaut’s Pulsar search engine. The search results are then used to generate a spectral library which is then employed for the targeted analysis of the DIA data. MS/MS spectra were searched against a Swissprot human database (January 2021). Database search criteria largely followed the default settings for directDIA including: tryptic with two missed cleavages, fixed carbomidomethylation of cysteine, and variable oxidation of methionine and acetylation of protein N-termini and precursor Q-value (FDR) cut-off of 0.01. […]

[5] = target: T2, CDK12 (Homo sapiens, UniProt Q16531+Q9NYV4); assay: Label-free quantitative mass spectrometry in MDA-MB-231 cells, CDK12; type: cell-based
T2 construct: endogenous in cells; host or cells: MDA-MB-231
Procedure: as §1, §2, §3, §4

[6] = target: T3, CDK13 (Homo sapiens, UniProt Q14004+Q16531); assay: Label-free quantitative mass spectrometry in MDA-MB-231 cells, CDK13; type: cell-based
T3 construct: endogenous in cells; host or cells: MDA-MB-231
Procedure: as §1, §2, §3, §4

[7] = label-free quantitative MS, replicate values
[8] = normalised to DMSO = 1, replicate values

T2 sequence (Q9NYV4 whole entry): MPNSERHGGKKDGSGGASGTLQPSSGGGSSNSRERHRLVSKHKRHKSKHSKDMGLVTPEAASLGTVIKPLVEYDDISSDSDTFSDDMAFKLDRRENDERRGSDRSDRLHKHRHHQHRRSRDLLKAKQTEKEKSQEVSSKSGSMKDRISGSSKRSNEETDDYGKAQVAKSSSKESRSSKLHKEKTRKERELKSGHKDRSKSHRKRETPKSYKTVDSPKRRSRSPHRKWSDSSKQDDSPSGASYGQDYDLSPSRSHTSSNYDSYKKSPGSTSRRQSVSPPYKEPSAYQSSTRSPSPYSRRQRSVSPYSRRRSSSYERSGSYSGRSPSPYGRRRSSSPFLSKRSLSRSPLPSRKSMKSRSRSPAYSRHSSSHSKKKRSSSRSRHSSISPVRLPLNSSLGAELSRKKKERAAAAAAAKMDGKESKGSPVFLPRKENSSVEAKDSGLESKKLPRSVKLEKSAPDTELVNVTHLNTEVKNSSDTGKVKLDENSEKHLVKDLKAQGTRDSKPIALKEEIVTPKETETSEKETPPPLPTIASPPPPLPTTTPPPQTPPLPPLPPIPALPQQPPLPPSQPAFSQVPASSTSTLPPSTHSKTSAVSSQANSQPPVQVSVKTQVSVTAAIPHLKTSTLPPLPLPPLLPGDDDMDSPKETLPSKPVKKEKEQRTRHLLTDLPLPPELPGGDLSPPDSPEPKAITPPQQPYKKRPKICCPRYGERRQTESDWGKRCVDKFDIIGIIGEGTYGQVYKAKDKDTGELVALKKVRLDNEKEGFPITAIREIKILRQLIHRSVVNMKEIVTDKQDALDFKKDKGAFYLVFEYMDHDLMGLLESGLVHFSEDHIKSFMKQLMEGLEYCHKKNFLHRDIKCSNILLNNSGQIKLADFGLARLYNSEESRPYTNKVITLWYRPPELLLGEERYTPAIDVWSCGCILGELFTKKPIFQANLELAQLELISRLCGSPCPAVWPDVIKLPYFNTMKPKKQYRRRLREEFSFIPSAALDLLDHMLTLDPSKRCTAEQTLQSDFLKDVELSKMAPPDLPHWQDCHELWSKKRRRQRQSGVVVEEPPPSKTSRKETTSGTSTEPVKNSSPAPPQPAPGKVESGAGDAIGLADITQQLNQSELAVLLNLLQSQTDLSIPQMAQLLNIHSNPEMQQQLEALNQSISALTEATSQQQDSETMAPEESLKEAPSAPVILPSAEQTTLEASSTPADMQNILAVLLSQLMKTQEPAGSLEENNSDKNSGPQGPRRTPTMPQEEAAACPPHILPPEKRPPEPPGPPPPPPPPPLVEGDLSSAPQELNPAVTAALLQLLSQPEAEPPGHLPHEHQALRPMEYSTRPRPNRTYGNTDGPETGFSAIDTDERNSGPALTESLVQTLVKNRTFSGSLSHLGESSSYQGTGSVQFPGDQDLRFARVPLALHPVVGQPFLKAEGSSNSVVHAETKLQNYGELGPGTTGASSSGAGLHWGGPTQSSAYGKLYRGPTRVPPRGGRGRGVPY
T2 sequence (O75909 whole entry partner): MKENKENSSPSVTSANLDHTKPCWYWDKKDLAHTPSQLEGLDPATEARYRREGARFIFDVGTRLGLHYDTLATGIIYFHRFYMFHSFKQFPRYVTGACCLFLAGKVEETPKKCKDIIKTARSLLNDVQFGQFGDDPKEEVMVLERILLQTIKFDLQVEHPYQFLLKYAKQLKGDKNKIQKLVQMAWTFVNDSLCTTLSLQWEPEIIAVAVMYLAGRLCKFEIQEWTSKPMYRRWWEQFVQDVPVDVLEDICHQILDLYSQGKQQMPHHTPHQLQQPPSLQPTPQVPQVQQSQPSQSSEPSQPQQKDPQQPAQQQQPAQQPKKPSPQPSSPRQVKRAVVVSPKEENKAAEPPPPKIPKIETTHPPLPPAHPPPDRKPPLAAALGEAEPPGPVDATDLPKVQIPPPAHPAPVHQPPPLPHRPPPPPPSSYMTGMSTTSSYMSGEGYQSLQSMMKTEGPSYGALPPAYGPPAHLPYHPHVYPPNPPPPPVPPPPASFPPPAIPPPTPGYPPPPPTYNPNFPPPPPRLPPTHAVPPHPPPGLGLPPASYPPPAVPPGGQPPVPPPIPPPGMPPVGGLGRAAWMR
T2 sequence (Q16531 2-1140 limits assumed): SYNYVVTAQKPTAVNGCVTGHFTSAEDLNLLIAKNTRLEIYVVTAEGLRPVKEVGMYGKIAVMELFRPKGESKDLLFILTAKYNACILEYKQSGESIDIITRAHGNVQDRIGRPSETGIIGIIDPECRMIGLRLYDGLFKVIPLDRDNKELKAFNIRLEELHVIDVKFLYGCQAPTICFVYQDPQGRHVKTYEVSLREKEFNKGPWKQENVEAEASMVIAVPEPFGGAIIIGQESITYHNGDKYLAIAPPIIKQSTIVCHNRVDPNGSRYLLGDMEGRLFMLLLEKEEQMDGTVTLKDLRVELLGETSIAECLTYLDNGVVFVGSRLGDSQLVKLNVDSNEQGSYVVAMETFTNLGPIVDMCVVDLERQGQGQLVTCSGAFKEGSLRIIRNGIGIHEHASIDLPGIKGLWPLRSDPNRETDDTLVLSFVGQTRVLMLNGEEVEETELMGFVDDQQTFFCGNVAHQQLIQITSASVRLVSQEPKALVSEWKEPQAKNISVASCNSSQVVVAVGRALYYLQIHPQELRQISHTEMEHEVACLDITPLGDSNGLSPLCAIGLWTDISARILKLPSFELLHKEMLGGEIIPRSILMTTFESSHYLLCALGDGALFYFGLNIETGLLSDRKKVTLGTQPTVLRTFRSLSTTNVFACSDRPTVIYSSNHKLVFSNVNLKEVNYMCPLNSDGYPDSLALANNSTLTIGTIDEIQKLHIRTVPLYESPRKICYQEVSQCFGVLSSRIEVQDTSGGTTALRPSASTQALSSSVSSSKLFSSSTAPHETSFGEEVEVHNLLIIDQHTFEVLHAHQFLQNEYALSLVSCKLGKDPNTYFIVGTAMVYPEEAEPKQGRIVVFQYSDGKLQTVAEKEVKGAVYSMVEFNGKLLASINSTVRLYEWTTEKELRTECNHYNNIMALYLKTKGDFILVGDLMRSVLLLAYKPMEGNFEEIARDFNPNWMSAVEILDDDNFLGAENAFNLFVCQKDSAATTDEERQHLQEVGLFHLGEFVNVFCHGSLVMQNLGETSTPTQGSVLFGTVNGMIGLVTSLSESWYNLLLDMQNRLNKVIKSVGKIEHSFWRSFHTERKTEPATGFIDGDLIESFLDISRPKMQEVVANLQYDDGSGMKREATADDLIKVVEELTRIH
T3 sequence (Q14004 whole entry): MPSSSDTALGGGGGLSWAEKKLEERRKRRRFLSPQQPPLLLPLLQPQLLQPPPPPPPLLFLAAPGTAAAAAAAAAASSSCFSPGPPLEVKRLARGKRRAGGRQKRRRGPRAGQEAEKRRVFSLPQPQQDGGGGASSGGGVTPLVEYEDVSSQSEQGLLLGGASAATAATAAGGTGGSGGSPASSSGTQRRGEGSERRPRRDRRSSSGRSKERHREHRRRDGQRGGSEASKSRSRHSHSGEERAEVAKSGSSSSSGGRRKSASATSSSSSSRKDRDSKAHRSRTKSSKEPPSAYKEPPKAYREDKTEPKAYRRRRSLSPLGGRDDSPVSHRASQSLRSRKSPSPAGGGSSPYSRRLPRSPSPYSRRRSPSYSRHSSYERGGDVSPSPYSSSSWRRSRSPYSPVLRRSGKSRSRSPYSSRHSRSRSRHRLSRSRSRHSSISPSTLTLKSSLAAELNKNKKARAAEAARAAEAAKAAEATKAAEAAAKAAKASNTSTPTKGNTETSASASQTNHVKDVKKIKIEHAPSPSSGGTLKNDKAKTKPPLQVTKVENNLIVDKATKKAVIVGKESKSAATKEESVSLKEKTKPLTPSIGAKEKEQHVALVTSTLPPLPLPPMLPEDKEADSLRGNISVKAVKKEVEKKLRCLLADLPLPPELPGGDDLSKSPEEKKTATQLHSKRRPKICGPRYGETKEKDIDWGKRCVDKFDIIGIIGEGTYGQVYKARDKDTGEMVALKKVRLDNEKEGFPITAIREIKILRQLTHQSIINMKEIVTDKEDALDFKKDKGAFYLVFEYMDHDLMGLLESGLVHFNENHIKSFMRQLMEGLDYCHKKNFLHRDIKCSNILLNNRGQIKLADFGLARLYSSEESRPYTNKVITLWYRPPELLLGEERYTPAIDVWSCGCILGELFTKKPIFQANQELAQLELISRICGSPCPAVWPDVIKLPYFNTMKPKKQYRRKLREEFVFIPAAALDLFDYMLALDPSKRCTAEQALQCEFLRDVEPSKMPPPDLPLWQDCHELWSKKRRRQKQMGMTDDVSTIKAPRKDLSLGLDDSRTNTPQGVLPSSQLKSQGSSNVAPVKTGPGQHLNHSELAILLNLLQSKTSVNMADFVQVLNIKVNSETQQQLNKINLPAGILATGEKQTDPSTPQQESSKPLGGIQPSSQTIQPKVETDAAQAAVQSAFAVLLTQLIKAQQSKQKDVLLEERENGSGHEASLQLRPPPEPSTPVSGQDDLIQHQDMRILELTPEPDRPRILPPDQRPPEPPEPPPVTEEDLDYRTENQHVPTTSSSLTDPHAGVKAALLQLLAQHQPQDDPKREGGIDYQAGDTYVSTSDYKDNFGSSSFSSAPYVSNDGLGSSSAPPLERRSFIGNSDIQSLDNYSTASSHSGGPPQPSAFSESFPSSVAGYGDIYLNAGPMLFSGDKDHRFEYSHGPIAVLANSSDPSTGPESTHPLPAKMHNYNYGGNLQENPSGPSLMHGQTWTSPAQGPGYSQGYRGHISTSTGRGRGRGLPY
T3 sequence (O75909 whole entry partner): as the sequence (O75909 whole entry partner) above
T3 sequence (Q16531 2-1140 limits assumed): as the sequence (Q16531 2-1140 limits assumed) above

For `CC[C@H](CO)Nc1nc(NCCCc2cccc(C)c2)c2ncn(C(C)C)c2n1` [DS30], the “TR-FRET signal at compound concentration” value ([1]; compound concentration 0.468 nM) was 0.2538 and 0.2487 and 0.2092, the “TR-FRET signal at compound concentration” value ([1]; compound concentration 2.16 nM) was 0.3096 and 0.3093 and 0.2708 and the “TR-FRET signal at compound concentration” value ([1]; compound concentration 3.6 nM) was 0.4411 and 0.4525 and 0.4039. The “TR-FRET signal at compound concentration” value ([1]; compound concentration 7.92001 nM) was 0.6962 and 0.7001 and 0.6519, the “TR-FRET signal at compound concentration” value ([1]; compound concentration 15.84 nM) was 1.209 and 1.183 and 1.188 and the “TR-FRET signal at compound concentration” value ([1]; compound concentration 30.96 nM) was 1.971 and 1.9872 and 1.9274. For the same molecule, the “TR-FRET signal at compound concentration” value ([1]; compound concentration 62.6401 nM) was 3.092 and 3.095 and 2.939, the “TR-FRET signal at compound concentration” value ([1]; compound concentration 125.28 nM) was 3.635 and 3.6 and 3.694 and the “TR-FRET signal at compound concentration” value ([1]; compound concentration 244.8 nM) was 4.013 and 4.0411. The “TR-FRET signal at compound concentration” value ([1]; compound concentration 993.601 nM) was 3.909 and 4.092 and 4.233, the “TR-FRET signal at compound concentration” value ([1]; compound concentration 2001.6 nM) was 4.11 and 4.134 and 4.272 and the EC50 ([1]; in vitro complex formation, 50 nM CDK12–cyclin K, 100 nM DDB1, text and figures, read-out: TR-FRET EC50) was 35 ± 1 nM. It also gave an EC50 ([1]; sheet MOESM7, read-out: log TR-FRET EC50 (converted)) of 34.8 nM, an EC50 ([1]; source data sheet correlations, read-out: TR-FRET EC50) of 34.8 nM and a DC50 [2] of 78 nM. For the same molecule, the EC50 ([3]; Homo sapiens, HEK-293T, HEK293T viability, 72 h, compound alone, read-out: Cellular assays EC50) was 451 nM, the Toxicity rescue ([3]; MLN4924-mediated cytotoxicity rescue, 10 µM used where n.d.) was 496% and the “cyclin K abundance (label-free MS)” value ([4]; individual replicates, sheet EDF7) was 199.985 and 224.267. The “cyclin K abundance (label-free MS)” value [4, 7] was 199.985 and 224.267, the “CCNK peptide count (DMSO-normalised)” value [4, 8] was 0.1093 and 0.1247 and the “average CCNK peptide count” value ([4]; sheet EDF7) was 212.126. For the same molecule, the CDK12 peptide count [5, 7] was 530.324 and 557.769, the “CDK12 peptide count (DMSO-normalised)” value [5, 8] was 0.5892 and 0.5761 and the CDK13 peptide count [6, 7] was 256.293 and 280.454. The “CDK13 peptide count (DMSO-normalised)” value [6, 8] was 0.3813 and 0.431.
